{
  "source": "patent EP0234178A1",
  "about": "“New 8-substituted derivatives of an anhydrooctonic acid, methods for their preparation, pharmaceutical preparations containing these and intermediates” (Astra Läkemedel Aktiebolag, priority 1985, dated 1987)",
  "key": {"[1]": {"system": "S. typhimurium AG701 i50 (KdsA^ts)", "assay": "Test III Inhibition of incorporation of 3H-arabinose-5-phosphate into LPS", "assay_type": "cell-based, Salmonella typhimurium", "settings": "S. typhimurium AG701 i50, 30°C, samples after 10 min", "protocol": "Arabinose-5-phosphate is a precursor of KDO in enteric bacteria. KdsA mutants of Salmonella typhimurium rapidly take up exogenous arabinose-5-phosphate and convert it to KDO which then appears exclusively in LPS (J. Biol. Chem. 255 (1980) 4257).\nS. typhimurium AG701 i50 (KdsA^ts) was grown overnight at 30°C in minimal Medium (Eur. J. Biochem. 107 (1980) 145-153) supplemented with 1% glycerol and 0.01 mM D-fucose. The next day 0.1 ml of overnight culture was added to fresh medium and the culture grown at 30°C until mid logarithmic phase - (OD [formula] mm = 0.2) when 50 µl of \"H-arabinose-5-phosphate (Amersham; specific activity 72 µCi/ml)-was added. After 10 min 0.45 ml samples were taken, the bacteria colleced by filtration (Whatman GF/F glass fibre filter) and washed with 6 ^x Iml PBS followed by 100 ml boiling water. This procedure ensures that all radioactive counts recorded represent arabinose-5-phosphate incorporated into LPS as KDO (J. Biol. Chem. 255 (1980) 4257)."}, "[2]": {"system": "Gram-negative bacteria", "assay": "Test I Bactericidal activity (viable count after exposure to drug)", "assay_type": "cell-based", "settings": "final concentration of ImM, 15 min exposure, number of viable bacteria", "protocol": "A range of Gram-negative bacteria were grown at 37°C in aerobic shake culture in nutrient broth for 16 h. O.I ml of these cultures were each inoculated into 5 ml of fresh broth and the cultures incubated further, until the bacteria reached mid-logarithmic phase, when the culture was harvested by centrifugation and resuspended in Basal Medium 2 (J Bacteriol 117 (1974) 3O2-311) to an OD 1cm 620 mm = 0.2 (equivalent to 10^8 bacteria/ml). Test compound was added to the bacterial suspension to give a final concentration of ImM. After 15 min exposure to drug the number of viable bacteria was determined by serial dilution in sterile phosphate buffered saline (PBS), plating out onto McConkey agar plates and incubating for 16 h at 37°C."}},
  "data": [
    {"smiles": "C[C@H](N)C(=O)N[C@@H](C)C(=O)NC[C@@H](O)[C@H]1O[C@H](C(=O)O)C[C@@H](O)[C@H]1O", "note": "[Compound 6, N-(L-alanyl-L-alanyl)-8-amino-2,6-anhydro-3,8-dideoxy-D-glycero-D-talo-octonic acid]", "values": [
      {"measurement": "incorporation of arabinose-5-phosphate into LPS / denovo LPS biosynthesis", "setting": "[1]", "result": "markedly inhibits"},
      {"measurement": "inhibitory action against the bacteria", "setting": "[2]", "result": "inhibitory action"}
    ]}
  ]
}
